Measured values from publication PMC10415494, “Ga(III) pyridinecarboxylate complexes: potential analogues of the second generation of therapeutic Ga(III) complexes?” (Journal of Biological Inorganic Chemistry, 2023).
Converted amounts (≈) assume the structure as drawn.

Legend:
[1] = test system: Escherichia coli (E. coli) CCM 3988; experiment: Antimicrobial activity, macrodilution method (growth by A590); format: cell-based; settings: Bacteria; MHB, 37 °C; DMSO max 1.0 vol. %; read-out: IC50 E. coli
Procedure: (§1) The antimicrobial activities of gallium(III) complexes GaPic, GaDpic, GaChel, GaCldpic, free ligands (HPic, H2Dpic, H2Chel, H2Cldpic) and positive controls (cefoxitin (C), ampicillin (A) and piperacillin (P)) were evaluated by macrodilution method using G^+ bacteria (Firmicutes) Staphylococcus aureus (S. aureus) CCM 3953 (Czech Collection of Microorganisms), G^− bacteria (γ-proteobacteria) Escherichia coli (E. coli) CCM 3988, Pseudomonas aeruginosa (P. aeruginosa) CCM 1959 (Czech Collection of Microorganisms) and the yeast Candida parapsilosis (C. parapsilosis) ATCC 22019 (American type culture collection). Cultures of bacteria (in Mueller–Hinton broth, MHB) and yeasts (in Sabouraud’s growth medium, SB) were incubated under shaking (250 rpm) at 37 °C. The growth of bacteria and yeasts was evaluated by measuring the absorbance of the growing cultures (A590) until the cultures reached the stationary growth phase. The effects of gallium(III) complexes on the growth of filamentous fungi Rhizopus oryzae (R. oryzae) CCM F-8284, Alternaria alternata (A. alternata) CCM F-128 and Microsporum gypseum (M. gypseum) CCM F-8342 (Czech Collection of Microorganisms) were observed by macrodilution method on solidified potato-dextrose growth medium (PDA). During culturing, the diameters of growing fungal colonies were measured at regular intervals. Briefly, the antimicrobial activity (bacteria and yeasts) gallium(III) complexes/ ligands were added to the microbial culture at the beginning of the cultivation-to the lag phase. Pure gallium(III) complexes/ligands were dissolved in DMSO. The final concentration of DMSO never exceeded 1.0 vol. % neither in control nor treated samples. Concentration of gallium(III) complexes used in experimental work for evaluation of antimicrobial activity was used in the range of 0.05–2 mM, for the free ligands in the range of 0.5–2.0 mM in all experiments. […] The IC50 values were evaluated from toxicity curves. All the obtained results of antimicrobial activity were compared to the activity of Ga(NO3)3.

[2] = test system: Pseudomonas aeruginosa (P. aeruginosa) CCM 1959; experiment: as above; format: cell-based
Procedure: as §1

[3] = test system: Staphylococcus aureus (S. aureus) CCM 3953; experiment: as above; format: cell-based
Procedure: as §1

[4] = test system: Candida parapsilosis (C. parapsilosis) ATCC 22019; experiment: Antimicrobial activity, macrodilution method (yeast, growth by A590); format: cell-based; settings: Yeast; Sabouraud's growth medium, 37 °C; read-out: IC50 C. parapsilosis
Procedure: as §1

[5] = test system: Alternaria alternata (A. alternata) CCM F-128; experiment: Growth of filamentous fungi, macrodilution method on solidified PDA (colony diameter); format: cell-based; settings: Filamentous fungi; solidified potato-dextrose growth medium; read-out: IC50 A. alternata
Procedure: as §1

[6] = test system: Microsporum gypseum (M. gypseum) CCM F-8342; experiment: as above; format: cell-based; settings: Filamentous fungi; solidified potato-dextrose growth medium; read-out: IC50 M. gypseum
Procedure: as §1

[7] = test system: Rhizopus oryzae (R. oryzae) CCM F-8284; experiment: as above; format: cell-based; settings: solidified potato-dextrose growth medium; read-out: IC50 R. oryzae
Procedure: as §1

[8] = Procedure: The stock solution of HPic and H2Dpic was prepared by dissolving in demineralized water (c(ligand) = 0.02 M). The gallium(III) ion solution was prepared from anhydrous gallium(III) nitrate (c(Ga^3+) = 0.05 M) and was standardized by back titration of excess of EDTA with zinc(II). Decarbonated potassium hydroxide solution (approx. 0.2 M) was used as a titrant that was standardized by potassium hydrogen phthalate (c(KHP) = 0.1 M). Standard inert electrolyte of nitric acid was used in all titrations (c(HNO3) = 0.03 M, I(HNO3/KNO3) = 0.1 M). Potentiometric measurements were carried out using a TitroLine 7000 dosage system with a BlueLine combination electrode (SI Analytics) in a glass vessel (5 mL) thermostated at 25 ± 0.1 °C at an ionic strength I(KNO3) = 0.1 M. Inert atmosphere was ensured by a constant flow of a nitrogen gas. Precise calibration of the electrode was carried out by the titration of 0.03 M HNO3 with 0.2 M KOH in the range –log[H^+] = 1.8–12.0, with the pH-meter yielding E values. The relation between E and –log[H^+] is expressed by Eq. (1) where the term E^0 contains the standard potentials of the electrode and the contribution of inert ions to the liquid-junction potential. The value S corresponds to the Nernstian slope, the value of which should be close to the theoretical value, and j1[H^+] and j2[OH^–] = j2Kw/[H^+] are contributions of the H^+ and OH^– ions, respectively, to the liquid-junction potential. The pKw value was 13.78 in Eq. (1).1 E=E^0-S-logH^++j1H^++j2Kw/H^+
The parameters j1 and j2 cause deviation from linear dependence between E and –log[H^+] only in strongly acidic and strongly alkaline solutions. The picolinic and dipicolinic acid protonation constants were determined with ligand concentration 0.004 M. The stability constants in the Ga-HPic and Ga-H2Dpic binary system were determined by the ligand concentrations 0.004 and the Ga^3+ concentration was 0.004, 0.002 and 0.001 M in dependence on the ligand to metal ratio.
The protonation constants β110, β210 are the concentration constants and are defined by β110 = [HL]/ [H][L], β210 = [H2L]/ [H]^2[L] (pK2 = logβ110, pK1 = logβ210- logβ110); the stability constants are defined by βrqp = [HrLqMp]/[H]^r[L]^q[M]^p. The equilibrium constants were obtained by fitting the titration data with OPIUM [23]. The following hydrolysis constants were used for the calculations: βpr = [Mp(OH)r^3−r][H]^r/[M]^p; log β11 = − 2.74; log β12 = − 7.0; log β13 = − 11.96; log β14 = − 15.52 [24].

For `O=[N+]([O-])[O-].O=[N+]([O-])[O-].O=[N+]([O-])[O-].[Ga+3]` [Ga(NO3)3, gallium(III) nitrate], the IC50 [1] was greater than 500 µM, the IC50 ([2]; Bacteria, MHB, 37 °C, DMSO max 1.0 vol. %, read-out: IC50 P. aeruginosa) was greater than 500 µM and the IC50 ([3]; Bacteria, MHB, 37 °C, DMSO max 1.0 vol. %, read-out: IC50 S. aureus) was greater than 500 µM. For the same compound, the IC50 [4] was greater than 500 µM, the IC50 [5] was greater than 500 µM and the IC50 [6] was greater than 500 µM. It also gave an IC50 [7] greater than 500 µM.
For `O=C([O-])c1cccc(C(=O)[O-])n1.O=C([O-])c1cccc(C(=O)[O-])n1.[Ga+3].[OH-]` [[Ga(Dpic)2(OH)]^2−], the “stability constant logβ-121” value [8] was 11.08(4).
In the case of `CO[C@@]1(NC(=O)Cc2cccs2)C(=O)N2C(C(=O)O)=C(COC(N)=O)CS[C@@H]21` [cefoxitin], the MIC ([3]; Staphylococcus aureus, CCM3953, positive control, read-out: MIC100 for S. aureus) is reported as 0.74 µM (≈ 0.316 µg/mL).
In the case of `O=C([O-])c1ccccn1.O=C([O-])c1ccccn1.O=C([O-])c1ccccn1.[Ga+3]` [[Ga(Pic)3]], the “stability constant logβ031” value [8] is reported as 20.86(2).
For `CCN1CCN(C(=O)N[C@@H](C(=O)N[C@@H]2C(=O)N3[C@@H]2SC(C)(C)[C@@H]3C(=O)O)c2ccccc2)C(=O)C1=O` [piperacillin], the MIC ([2]; Pseudomonas aeruginosa, CCM1959, positive control, read-out: MIC100 for P. aeruginosa) was 5.81 µM (≈ 3.01 µg/mL).
